Measurements from patent publication US7378437B2, “Drugs for diabetes” (NICOX S.A., priority 2000, dated 2008).

Tests used:
[1] = test system: aorta of insulin-resistant rats; test: Vasorelaxing effect in vitro on isolated aorta of insulin-resistant (fructose-rich diet) rats, precontracted with phenylephrine, with or without LNNA; format: cell-based, rat; conditions: for % Relaxation, Aorta with LNNA / % Relaxation, Aorta Without LNNA: phenylephrine 10 μM precontracted, percentage with respect to non insulin-resistant controls; for vasorelaxing effect in conditions of experimental diabetes (in words): aorta of insulin-resistant rats, in the presence and in absence of LNNA
Procedure: To evaluate the strengthening effect of the drugs of the invention on the antidiabetic activity of insulin, animals (rats) are treated with a fructose rich diet (Am. J. Physiol. 275, R788-R792, 1998). In this way an insulinic resistance is induced in the animals.
The pharmacological test is a test in vitro and consists in determining the vasorelaxing activity induced by the products of the invention, measured on an isolated vessel (aorta) taken from animals treated as above mentioned. The test in vitro is carried out both in the presence and in absence of LNNA (N-nitro-L-Arginine), which is an irreversible inhibitor of the nitric oxide synthethases, to verify if the vasorelaxing effect depends on the protective endogenous substances (nitric oxide).
The capability of the compounds of the invention to exert a vasorelaxing effect both in the presence and in absence of vasoprotective substances in such conditions of experimental diabetes, (animals with a fructose rich diet, and treated with or without LNNA), is an index which allows to evaluate the antidiabetic action of the tested compound.
In the pharmacological experiment isolated vessels are used, taken from rats which have developed, as said, an insulinic resistance condition induced by administering for 4 weeks a fructose rich diet.
Male Sprague Dawley rats having an average weight equal to 150-200 g were sacrificed and bled. The abdomi-nal aorta was removed and suitably prepared for determining the myorelaxing activity in vitro according to the method described by Vogel G. H. et al., Drug Discovery Evaluation-Pharmacological Assays page 32, 1996.
A part of the specimen is treated with LNNA.
The tissues are precontracted with phenylephrine (10 μM) and the relaxation was determined in the presence or in absence of the compounds of the invention or of the reference standards. […] The results are reported in Table 1 and are expressed as a percentage with respect to the vasorelaxing effect measured in the controls.

| Compound | % Relaxation, Aorta with LNNA ([1]; concentration 10^−5 M) | % Relaxation, Aorta Without LNNA ([1]; concentration 10^−5 M) | % Relaxation, Aorta with LNNA ([1]; concentration 10^−4 M) | % Relaxation, Aorta Without LNNA ([1]; concentration 10^−4 M) | vasorelaxing effect in conditions of experimental diabetes (in words) [1] | further results |
| --- | --- | --- | --- | --- | --- | --- |
| CC(=O)Oc1ccccc1C(=O)OCc1cccc(CO[N+](=O)[O-])n1.Cl [Ex. 1, 2-acetoxybenzoic acid 6-(nitroxymethyl)-2-methylpyridinyl ester hydrochloride] | 70% | 93% | – | – | – | – |
| CC(=O)Oc1ccccc1C(=O)Oc1cccc(CO[N+](=O)[O-])c1 [Ex. 2, 3-nitrooxymethylphenyl ester of the 2-acetoxybenzoic acid] | – | – | 70% | 70% | – | – |
| COc1ccc2c(c1)c(CC(=O)Oc1cccc(CO[N+](=O)[O-])c1)c(C)n2C(=O)c1ccc(Cl)cc1 [Ex. 3 comp., 1-(4-chlorobenzoyl)-5-methoxy-2-methyl-3-indolacetic acid 3′-(nitroxymethyl)phenyl ester, reference compound] | – | – | – | – | did not result active | % Relaxation, Aorta with LNNA ([1]; concentration 10^−6 M): 20%; % Relaxation, Aorta Without LNNA ([1]; concentration 10^−6 M): 20% |
| CC(=O)Oc1ccccc1C(=O)Oc1ccc(CO[N+](=O)[O-])cc1 [Ex. 6, 2-(acetyloxy)benzoic acid 4-(nitroxymethyl) phenyl ester] | 65% | 90% | – | – | – | melting point: 86 to 88 °C |
| CN(C)C(=N)N=C(N)N [Metformin, reference compound] | – | – | 30% | 90% | active only in the absence of the inhibitor of the NO synthesis | – |
